Test results: patent publication US20080248008A1, “Inhibitors of Protein Kinase a Anchoring” (priority 2004, published 2008)

What was measured:
[1] = system: Lck-PY505; experiment: Lck-PY505 level in lipid rafts of forskolin-stimulated T cells; type: cell-based, human; conditions: 25 μM, 12 hours, n=3
Experimental: Antibodies. RI or RII were immunoprecipitated with polyclonal antibodies against human RI or human RII at a 3 μg/ml dilution (Santa Cruz Biotechnology). MEME3 or scrambled peptide was immunoprecipitated with 1.5 μl of anti-GFP antiserum (Invitrogen). Monoclonal (Transduction laboratories) or polyclonal antibodies (Santa Cruz Biotechnology) against human RIα and RIIα were used at a 1 μg ml^−1 or 0.5 μg ml^−1 ilution for Western blotting. Polyclonal antibodies against human Cα (Santa Cruz Biotechnology) and LAT (Upstate Biotechnology) were used at a 0.4 μg ml^−1 and a 1 μg ml^−1 dilution for Western blotting, respectively. Polyclonal antibodies against LckPY505 (Cell Signaling) were used at a 1:1000 dilution and polyclonal antibody raised towards PS364 in Csk were used as previously described (Yaqub et al., Biochem. J., 372: p 271-8, 2003). Polyclonal antibodies against StAR (Affinity BioReagents) were used at 1 μg ml^−1. […]
Peripheral blood T cells were incubated in the absence (FIG. 20, A) or presence of 25 μM MEME3-Arg11 (B) or 25 μM SM3-Arg11 (C) for 12 hours and stimulated with forskolin to activate the PKA-Csk inhibitory pathway. […] Next, fractions were analysed by 10% PAGE, blotting onto a PVDF membrane and immunoblotting using phosphospecific antibodies to Lck-PY505 (FIG. 20, panels A-C).

[2] = target: PKA-RIα (Homo sapiens, UniProt P10644); experiment: Solid phase pull down from T cell lysate, PKA-RIα; type: binding; parameters: endogenous in cells; host or cells: Jurkat T cells; conditions: overnight
Experimental: Solid phase assay and cell lysate. 5×10^6 Y1 cells or 20×10^6 Jurkat T cells lysed in 150 mM NaCl, 1% NP-40, 0.5% deoxycholate, 0.1% SDS and 50 mM Tris HCl (7.8) were incubated overnight at 4° C. with MEME3 and SM3 peptides synthesized on membranes (Autospot, Intavis, AG). The membranes were washed two times for 10 minutes in lysis buffer and thereafter in high salt lysis buffer (1 M NaCl) before boiling in SDS-PAGE loading buffer.
Solid phase pull down (see schematic illustration in FIG. 24A, left panel) was performed to analyse endogenous PKA binding to MEME3. MEME3 and SM3 peptides synthesized in triplicate on membranes were incubated overnight in T cell lysate, thereafter bound proteins were eluted, subjected to 10% PAGE electrophoresis and analysed by immunoblotting (FIG. 11). The presence of PKA subunits was assessed by immunoblotting using specific antibodies against PKA-RIα and PKA-RIIα subunits.

Row | Substance | reduction of LckPY505 levels compared to SM3-Arg11 treated cells [1] [%] | immobilization of PKA-RIα [2]
1 | LEQYANQLADQIIKEATERRRRRRRRRrr [MEME3-Arg11] | 60 | –
2 | IEKELAQQYQNADAITLE [SM3, scrambled MEME3 negative control peptide, reference compound] | – | Neither PKA-RIα nor PKA-RIIα bound
